From patent publication US5594009A, “Fused pyrrolocarbazoles” (priority 1995, dated 1997)

Experiments:
[1] = system: choline acetyltransferase (ChAT) activity in dissociated rat embryonic spinal cord culture; assay: Spinal Cord ChAT Activity Assay; type: cell-based; details: ChAT measured after 48 hours
Description: In these assays, a fused pyrrolocarbazole was directly added to a dissociated spinal cord culture. […] The fused pyrrolocarbazole was added on the same day the dissociated spinal cord cell culture was initiated.
Methods: Fetal rat spinal cord cells were dissociated, and experiments were performed as described (Smith et al., J. Cell Biology., 101:1608-1621 (1985); Glicksman et al., J. Neurochem. 61:210-221 (1993)). Dissociated cells were prepared from spinal cords dissected from rats (embryonic day 14-15) by standard trypsin dissociation techniques (Smith et al., J. Cell Biology 10:1608-1621 (1985)). Cells were plated at 6×10^5 cells/cm^2 on poly-1-ornithine coated plastic tissue culture wells in serum-free N2 medium supplemented with 0.05% bovine serum albumin (BSA) (Bottenstein et al., PNAS USA 514-517 (1979)). Cultures were incubated at 37° C. in a humidified atmosphere of 5% CO2 /95% air for 48 hours. ChAT activity was measured after 2 days it vitro using a modification of the Fonnum procedure (Fonnum, J. Neurochem. 24:407-409 (1975)) according to McManaman et al. and Glicksman et al. (McManaman et al., Developmental Biology 125:311-320 (1988); Glicksman et al., J. Neurochem. 61:210-221 (1993)).

[2] = target: protein kinase C; assay: PKC Activity Inhibition Assay; type: biochemical
Description: Fused pyrrolocarbazoles inhibited the activity of protein kinase C (Table VI). The protein kinase C assay has been disclosed (Murakata et al., U.S. Pat. No. 4,923,986; Kikkawa et al., J. Biol. Chem. 257:13341-13348 (1982)). The assay was performed with several concentrations of fused pyrrolocarbazoles. The concentration at which protein kinase C was 50% inhibited (IC50) was determined.

[3] = system: indoleamine 2,3-dioxygenase (IDO) mRNA in THP-1 cells; assay: Inhibition of Induction By IFNγ of IDO mRNA; type: cell-based; details: Homo sapiens, compound 400 nM, IFNγ 400 units/ml, IDO/GAPD mRNA ratio, 48 hours, read-out: IDO mRNA, Phosphorimager units, % of IFNγ-treated cells
Description: Fused pyrrolocarbazoles in accordance with our invention were tested for their ability to inhibit the induction by IFNγ of indoleamine 2,3-dioxygenase (IDO) mRNA in THP-1 cells, a human monocyte cell line.
Cell Culture: THP-1 cells (American Type Culture Collection, Rockville, Md.), a human monocytic leukemia cell line, were grown in RPMI 1640 medium (Mediatech, Herndon Valley, Va.) with 50 μM 2-mercaptoethanol and 10% fetal bovine serum. Cells were plated in T75 culture flasks, at 4×10^4 cells/cm^2 in 10 ml of medium, and were immediately treated with fused pyrrolocarbazoles at various concentrations. After 30 minutes recombinant (E. coli) IFNγ (Boehringer Mannheim Corporation,Indianapolis, Ind.) was added at 200-400 units/ml. Cells were incubated (37° C., 5% CO2 /95% Air) for 48 hours after treatment.
RNA Isolation: Cells were pelleted by centrifugation (50× g, 7 min.) and medium was decanted. The cells were then washed two times with phosphate buffered saline pH 7.2 (PBS) (Mediatech, Herndon Valley, Va.). The washed cell pellet was lysed in 2 ml RNAzol B (Tel-Test, Inc., Friendswood, Tex.). RNA was isolated by chloroform extraction, precipitated, and washed following the "RNAzol B isolation of RNA" protocol accompanying this product. RNA was then solubilized in H2 O, and the concentration and purity were determined by reading the absorbance at A260 nm and A280 nm. Finally, the RNA was reprecipitated in ethanol, overnight at -20° C.
cDNA Probes: Indoleamine 2,3-dioxygenase (IDO) cDNA was received from Sohan L. Gupta, Ph. D. (Hipple Cancer Research Center, Dayton, Ohio) (see Da., W. & Gupta, S. L. 168 Biochem. Biophys. Res. Commun. 1, 1990 and Hassanain, H. H. et al. 268 J. Biol. Chem. 5077, 1993). Glyceraldehyde-3-phosphate dehydrogenase (GAPD) cDNA was obtained through American Type Culture Collection (Rockville, Md.). These cDNA's were produced and purified using standard methods (see, Sambrook, Fritsch, Maniatis (1989) Molecular Cloning a Laboratory Manual/Second Edition 1, 1.21-1.24, 1.74-1.81, hereinafter in this Example, "Maniatis a") using Qiagen plasmid purification kits (Qiagen Inc., Chatsworth, Calif.). DNA concentration and purity were determined by absorbance at 280 nm and 260 nm. Specific DNA inserts were cut out by standard methods using restriction enzymes, and subsequently separated on agarose gels as in Maniatis (see, Sambrook, Fritsch, Maniatis (1989) Molecular Cloning a Laboratory Manual/Second Edition 1, 6.9-6.15, hereinafter in this Example, "Maniatis b"). cDNA probes were further purified for [^32 P] labeling using the Geneclean II DNA purification kit (BIO 101, Inc., La Jolla, Calif.). Probes were labeled with dCTP-α-^32 P (Amersham Corp., Arlington Heights, Ill.) by random primer labeling, using the Prime-a-GeneLabeling System (Promega Corp., Madison, Wis.).
Analysis and quantification of mRNA: IDO mRNA was detected by Northern blot analysis (see Maniatis a, p. 7.39-7.51) using standard methods. […] Quantification of IDO mRNA was carried out using a phosphorimager (Molecular Dynamics) in which density (i.e., amount of RNA) is expressed as relative phosphorimager units. […] GAPD mRNA measurement by phosphorimager quantification of Northern blots serves as a means to normalize for potential sample to sample differences in the amount of total RNA loaded on gels. […]

[4] = system: AT-2 cells; assay: Inhibition of Growth of Prostate Cancer Cell Line (MTS assay); type: cell-based; details: 72 h; 3 days, MTS; read-out: AT-2 cell growth IC50
Outline: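 AT-2 rat Dunning prostate cancer cells were plated in RPMI-1640 with 10% FCS and 250 nM dexamethasone; compounds added next day, initially at 10–0.01 μM, then at 3 or more concentrations near the IC50. Cell number was measured 3 days later by MTS/PMS reduction (A490).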

How did the “Spinal Cord ChAT Activity, % of Control, untreated cultures” value [1] turn out when `O=C1NCc2c1c1c(c3[nH]c4ccccc4c23)Cc2ccccc2-1` [Compound I-2] was run?
Its value is 160 % of Control.

What about the IC50 [2] of the same molecule?
The IC50 was 0.11 µM.

What about the mrna remaining at 0.4 µM [3] of the same molecule?
Its mrna remaining at 0.4 µM is 55%.

What about the IC50 [4] of the same molecule?
The IC50 was 4.6 µM.
